Measurements reported in US20240279220A1, “INDOLE COMPOUNDS AND METHODS OF USE” (Genzyme Corporation, priority 2021, published 2024).

What was measured:
[1] = tested on: NBD1/3D; assay: Aggregation analysis using differential static light scattering (DSLS), NBD1 thermal stability; type: binding, Human; details: ΔTagg versus DMSO control; compound at 100 μM
Outline: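 Purified NBD1 at 0.2 mg/ml in S200 buffer (pH 7.6, 2 mM ATP, 5 mM MgCl2, 1% glycerol) was heated with compound at 1 °C/min to 70 °C. Tagg taken from the light-scattering curve inflection point; ΔTagg = compound Tagg minus mean DMSO control Tagg.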

[2] = molecular target: T1, CFTR (Homo sapiens, UniProt P13569, DEL508-508); assay: TECC24 recording of CFTR-mediated transepithelial chloride transport in ΔF508 homozygous CF-HBE cells; type: cell-based; details: 10 μM test agent, 48 hours incubation, AUC of forskolin-stimulated IEQ divided by vehicle AUC, primary CF-HBE cells
T1 construct: Primary human bronchial epithelial cells from a ΔF508 homozygous CF donor; host or cells: primary human bronchial epithelial cells (CF-HBE), ΔF508 homozygous donor
Protocol: The effects of a test agent on CFTR-mediated transepithelial chloride transport was measured using TECC24 recording analysis. Test agents were solubilized in DMSO. Solubilized test agents were mixed with incubation medium containing DMEM/F12, Ultroser G (2%; Crescent Chemical, catalog #67042), Hyclone Fetal Clone II (2%; GE Healthcare, catalog #SH30066.02), bovine brain extract (0.25%; Lonza, catalog #CC-4098), insulin (2.5 μg/mL), IL-13 (10 ng/mL), hydrocortisone (20 nM), transferrin (2.5 μg/mL), triiodothyronine (500 nM), ethanolamine (250 nM), epinephrine (1.5 μM), phosphoethanolamine (250 nM), and retinoic acid (10 nM). Primary human bronchial epithelial cells from a ΔF508 homozygous CF donor (CF-HBE cells; from University of North Carolina Cystic Fibrosis Tissue Procurement Center), grown on Transwell HTS 24-well cell culture inserts (Costar, catalog #3378), were exposed to test agents or controls dissolved in incubation medium. The CF-HBE cells were cultured at 36.5° C. for 48 hours before TECC24 recordings were performed in the presence or absence of test agent, a positive control or vehicle (DMSO).
Following incubation, the transwell cell culture inserts containing the test agent or control-treated CF-HBE cells were loaded onto a TECC24 apparatus (TECC v7 or MTECC v2; EP Design) to record the transepithelial voltage (VT) and resistance (TEER) using 4 AgCl electrodes per well configured in current-clamp mode. The apical and basolateral bath solutions both contained (in mM) 140 NaCl, 5 KCl, 2 CaCl2, 1 MgCl2, 10 Hepes, and 10 glucose (adjusted to pH 7.4 with NaOH). To inhibit basal Na+ absorption, the ENaC inhibitor benzamil (10 μM) was added to the bath. Then, the adenylate cyclase activator, forskolin (10 μM), was added to the bath to activate CFTR. The forskolin-stimulated Cl— transport was halted by addition of CFTR inhibitor-172 (20 μM) to the bath at the end of the experiment to confirm specificity. VT and TEER recordings were digitally acquired at routine intervals using TECC or MTECC software (EP Design). VT and TEER were transformed into equivalent transpeithelial Cl— current (IEQ), and the Area Under the Curve (AUC) of the IEQ timecourse between forskolin and CFTR inhibitor-172 addition is generated using Excel (Microsoft). Efficacy is expressed as the ratio of the test agent AUC divided by vehicle AUC. EC50s based on AUC are generated using the non-linear regression log(agonist) vs. response function in Prism software (Graphpad) with HillSlope fixed=1.
If a test agent increased the AUC of the forskolin-stimulated IEQ relative to vehicle in CF-HBE cells, and this increase was inhibited by CFTR inhibitor-172, then the test agent was considered a CFTR corrector.

T1 sequence (P13569 with tags, fused parts or gaps DEL508-508): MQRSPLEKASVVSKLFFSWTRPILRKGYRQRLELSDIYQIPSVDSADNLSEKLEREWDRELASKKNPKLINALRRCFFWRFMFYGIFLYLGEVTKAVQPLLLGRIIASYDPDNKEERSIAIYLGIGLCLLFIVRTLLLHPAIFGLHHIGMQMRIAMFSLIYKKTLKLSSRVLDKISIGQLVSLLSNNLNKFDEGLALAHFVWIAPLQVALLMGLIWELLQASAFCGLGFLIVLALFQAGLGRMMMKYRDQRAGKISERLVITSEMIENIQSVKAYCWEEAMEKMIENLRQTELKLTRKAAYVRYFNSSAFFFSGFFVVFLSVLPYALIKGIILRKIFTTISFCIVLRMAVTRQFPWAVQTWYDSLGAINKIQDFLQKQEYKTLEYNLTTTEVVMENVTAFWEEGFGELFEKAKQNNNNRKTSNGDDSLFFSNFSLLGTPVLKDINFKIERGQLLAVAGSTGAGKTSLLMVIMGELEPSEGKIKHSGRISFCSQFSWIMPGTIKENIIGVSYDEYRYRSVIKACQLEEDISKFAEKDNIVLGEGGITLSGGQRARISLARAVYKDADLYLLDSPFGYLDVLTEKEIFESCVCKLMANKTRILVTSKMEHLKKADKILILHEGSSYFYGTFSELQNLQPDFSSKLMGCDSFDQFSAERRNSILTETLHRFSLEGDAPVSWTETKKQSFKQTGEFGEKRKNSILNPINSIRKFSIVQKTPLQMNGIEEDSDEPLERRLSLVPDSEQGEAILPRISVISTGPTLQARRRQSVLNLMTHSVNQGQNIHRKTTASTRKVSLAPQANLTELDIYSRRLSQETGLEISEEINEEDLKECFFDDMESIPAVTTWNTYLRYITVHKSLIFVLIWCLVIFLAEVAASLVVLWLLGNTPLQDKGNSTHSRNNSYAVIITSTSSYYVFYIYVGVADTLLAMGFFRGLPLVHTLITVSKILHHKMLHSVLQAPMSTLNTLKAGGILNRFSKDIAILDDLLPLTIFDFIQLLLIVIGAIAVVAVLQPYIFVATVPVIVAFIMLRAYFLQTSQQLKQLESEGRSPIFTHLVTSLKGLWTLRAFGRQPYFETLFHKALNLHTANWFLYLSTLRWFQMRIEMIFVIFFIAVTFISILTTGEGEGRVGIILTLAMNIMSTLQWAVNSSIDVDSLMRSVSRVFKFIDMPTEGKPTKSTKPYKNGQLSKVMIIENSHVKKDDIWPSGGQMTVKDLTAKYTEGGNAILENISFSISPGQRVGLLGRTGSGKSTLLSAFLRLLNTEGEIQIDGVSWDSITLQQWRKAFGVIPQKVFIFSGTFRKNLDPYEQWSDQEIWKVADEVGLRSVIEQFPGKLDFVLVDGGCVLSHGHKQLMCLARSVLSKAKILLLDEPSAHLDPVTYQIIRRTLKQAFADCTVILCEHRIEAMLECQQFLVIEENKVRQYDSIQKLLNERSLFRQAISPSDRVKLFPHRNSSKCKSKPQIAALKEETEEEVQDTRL

Row | Compound | DSLS NBD1/3D Human Stability delta-T (° C.) @ 100 (μM) [1] | TECC24 @ 10 μM over DMSO (AUC fold over DMSO) [2]
1 | CC(c1c[nH]c(-c2cc(Oc3c(F)cc4[nH]ccc4c3S(C)(=N)=O)ccc2F)n1)c1cccc(CCC(=O)O)c1F (single isomer, unassigned) [Example 136C, 3-(2-fluoro-3-(1-(2-(2-fluoro-5-((6-fluoro-4-(S-methylsulfonimidoyl)-1H-indol-5-yl)oxy)phenyl)-1H-imidazol-4-yl)ethyl)phenyl)propanoic acid] | A (A: T ≥ 10° C.) | A (“A” refers to AUC @10 uM >= 12)
2 | CC(Cc1cccc(C(C)c2cnc(-c3cc(Oc4c(F)cc5[nH]ccc5c4F)ccc3F)[nH]2)c1F)C(=O)O (single isomer, unassigned) [Example 137D, 3-(3-(1-(2-(5-((4,6-difluoro-1H-indol-5-yl)oxy)-2-fluorophenyl)-1H-imidazol-5-yl)ethyl)-2-fluorophenyl)-2-methylpropanoic acid] | A (A: T ≥ 10° C.) | A (“A” refers to AUC @10 uM >= 12)
3 | Cc1c(Oc2ccc(F)c(-c3ncc([C@H](C)c4cccc([C@@H]5C[C@H]5C(=O)O)c4F)[nH]3)c2)c(F)cc2[nH]ccc12 (single isomer, unassigned) [Example 139F, trans-2-(2-fluoro-3-(1-(2-(2-fluoro-5-((6-fluoro-4-methyl-1H-indol-5-yl)oxy)phenyl)-1H-imidazol-5-yl)ethyl)phenyl)cyclopropane-1-carboxylic acid] | A (A: T ≥ 10° C.) | B (“B” refers to AUC @10 uM between 4-12)
4 | Cc1nc(-c2cc(Oc3c(F)cc4[nH]ccc4c3F)ccc2F)[nH]c1C(O)c1cccc(CCC(=O)O)c1F (single isomer, unassigned) [Example 180, 3-(3-((2-(5-((4,6-difluoro-1H-indol-5-yl)oxy)-2-fluorophenyl)-4-methyl-1H-imidazol-5-yl)(hydroxy)methyl)-2-fluorophenyl)propanoic acid] | A (A: T ≥ 10° C.) | A (“A” refers to AUC @10 uM >= 12)
5 | CC(c1nnc(-c2cc(Oc3c(F)cc4[nH]ccc4c3F)ccc2F)[nH]1)c1cccc(CCC(=O)O)c1F (single isomer, unassigned) [Example 252A, 3-(3-(1-(5-(5-((4,6-difluoro-1H-indol-5-yl)oxy)-2-fluorophenyl)-4H-1,2,4-triazol-3-yl)ethyl)-2-fluorophenyl)propanoic acid] | B (B: 5-10° C.) | A (“A” refers to AUC @10 uM >= 12)
6 | CC(c1cn(C)c(-c2cc(Oc3c(F)cc4[nH]ccc4c3F)ccc2F)n1)c1cccc(CCC(=O)O)c1F (single isomer, unassigned) [Example 278B, 3-(3-(1-(2-(5-((4,6-difluoro-1H-indol-5-yl)oxy)-2-fluorophenyl)-1-methyl-1H-imidazol-4-yl)ethyl)-2-fluorophenyl)propanoic acid] | B (B: 5-10° C.) | A (“A” refers to AUC @10 uM >= 12)
7 | CS(=O)(=O)c1c(Oc2cccc(-c3ccn(Cc4cccc(CCC(=O)O)c4)n3)c2)ccc2[nH]ccc12 [Example 40] | A (A: T ≥ 10° C.) | A (“A” refers to AUC @10 uM >= 12)
8 | CS(=O)(=O)c1c(Oc2ccc(F)c(-c3ncc(C4(c5cccc(CCC(=O)O)c5)CCOC4)[nH]3)c2)c(F)cc2[nH]ccc12 (centres unmarked) [Example 45, 3-(3-(3-(2-(2-Fluoro-5-((6-fluoro-4-(methylsulfonyl)-1H-indol-5-yl)oxy)phenyl)-1H-imidazol-5-yl)tetrahydrofuran-3-yl)phenyl)propanoic acid] | A (A: T ≥ 10° C.) | B (“B” refers to AUC @10 uM between 4-12)
9 | CC(C#N)(c1cccc(CCC(=O)O)c1)c1c[nH]c(-c2cc(Oc3c(F)cc4[nH]ccc4c3CC(F)(F)F)ccc2F)n1 (centres unmarked) [Example 52, 3-(3-(1-cyano-1-(2-(2-fluoro-5-((6-fluoro-4-(2,2,2-trifluoroethyl)-1H-indol-5-yl)oxy)phenyl)-1H-imidazol-4-yl)ethyl)phenyl)propanoic acid] | B (B: 5-10° C.) | B (“B” refers to AUC @10 uM between 4-12)
10 | CO[C@]1(C)C[C@@](c2cc(F)cc(CCC(=O)O)c2)(c2cnc(-c3cc(Oc4c(F)c(F)c5[nH]ccc5c4S(C)(=O)=O)ccc3F)[nH]2)C1 [Example 74, 3-(3-((1r,3r)-1-(2-(5-((6,7-difluoro-4-(methylsulfonyl)-1H-indol-5-yl)oxy)-2-fluorophenyl)-1H-imidazol-5-yl)-3-methoxy-3-methylcyclobutyl)-5-fluorophenyl)propanoic acid] | A (A: T ≥ 10° C.) | A (“A” refers to AUC @10 uM >= 12)
11 | CP(C)(=O)c1c(Oc2ccc(F)c(-c3ncc(C4(c5cc(F)cc(CCC(=O)O)c5)CC(F)(F)C4)[nH]3)c2)c(F)cc2[nH]ccc12 [Example 80, 3-(3-(1-(2-(5-((4-(dimethylphosphoryl)-6-fluoro-1H-indol-5-yl)oxy)-2-fluorophenyl)-1H-imidazol-5-yl)-3,3-difluorocyclobutyl)-5-fluorophenyl)propanoic acid] | A (A: T ≥ 10° C.) | C (“C” refers to AUC @ 10 uM <= 4)
12 | COC(=O)CCc1cccc(C(O)c2cnc(-c3cccc(Oc4c(F)cc5[nH]ccc5c4-c4nccs4)c3)[nH]2)c1 (centres unmarked) [Example 86, Methyl 3-(3-((2-(3-((6-fluoro-4-(thiazol-2-yl)-1H-indol-5-yl)oxy)phenyl)-1H-imidazol-5-yl)(hydroxy)methyl)phenyl)propanoate] | C (C: ≤5° C.) | C (“C” refers to AUC @ 10 uM <= 4)
13 | CP(C)(=O)c1c(Oc2cccc(-c3nc(C(O)c4cccc(CCC(=O)O)c4)cs3)c2)c(F)cc2[nH]ccc12 (centres unmarked) [Example 97, 3-(3-((2-(3-((4-(Dimethylphosphoryl)-6-fluoro-1H-indol-5-yl)oxy)phenyl)thiazol-4-yl)(hydroxy)methyl)phenyl)propanoic acid] | B (B: 5-10° C.) | C (“C” refers to AUC @ 10 uM <= 4)
14 | O=C(O)CCc1cccc(Cc2c[nH]c(-c3cc(Oc4c(F)cc5[nH]ccc5c4F)ccc3F)n2)c1 [Example 118, 3-(3-((2-(5-((4,6-difluoro-1H-indol-5-yl)oxy)-2-fluorophenyl)-1H-imidazol-4-yl)methyl)phenyl)propanoic acid] | B (B: 5-10° C.) | B (“B” refers to AUC @10 uM between 4-12)
15 | Cc1c(Oc2ccc(F)c(-c3ncc(Cc4cccc(CCC(=O)O)c4F)[nH]3)c2)c(F)cc2[nH]ccc12 [Example 119, 3-(2-fluoro-3-((2-(2-fluoro-5-((6-fluoro-4-methyl-1H-indol-5-yl)oxy)phenyl)-1H-imidazol-5-yl)methyl)phenyl)propanoic acid] | B (B: 5-10° C.) | C (“C” refers to AUC @ 10 uM <= 4)
16 | O=C(O)CCc1cccc(Cc2cnc(-c3cc(Oc4c(F)c(F)c5[nH]ccc5c4F)ccc3F)[nH]2)c1F [Example 121, 3-(2-fluoro-3-((2-(2-fluoro-5-((4,6,7-trifluoro-1H-indol-5-yl)oxy)phenyl)-1H-imidazol-5-yl)methyl)phenyl)propanoic acid] | B (B: 5-10° C.) | A (“A” refers to AUC @10 uM >= 12)
